According to patent US4309437A, “Pyrrolo-benzodiazepine compounds and anti-tumor composition thereof” (priority 1979, dated 1982):
Where a name gives a salt, the structure may show the parent alone.

Key:
[1] = known, in words; cited from earlier work
[2] = known, in words; cited from earlier work; remark: listed apart in the source
[3] = said to be exhibited due to side effects; cited from earlier work
[4] = Toxicity test (LD50, intraperitoneal, mice); assay type: in vivo, mouse; conditions: mouse, in vivo, ip, dd-strain male mice, 18 to 21 g, 3 weeks observation, Probit analysis
Procedure: (§1) Toxicity test: The compound being tested is suspended in physiological saline in varied concentrations by the serial dilution method (common ratio, 1:1.5). Each solution was administered intraperitoneally to groups of 8 to 12 dd-strain male mice, each 18 to 21 g in body weight. The mice were then bred on a usual diet and water. The LD50 value was determined by Probit analysis by observing dead and alive for 3 weeks after the administration.

dd-strain male mice = test: Toxicity test (LD50, intraperitoneal, mice); assay type: in vivo, mouse; conditions: 18 to 21 g, 3 weeks observation, Probit analysis, 30240 min
Procedure: as §1

COC1Nc2c(ccc(C)c2O)C(=O)N2C=C(/C=C/C(N)=O)CC12 (single isomer, unassigned) [P"B"A"]
antitumor activity [1]: very strong antitumor activity
antibacterial activity [2]: antibacterial and antitumor activities are exhibited
toxicity, particularly cardiotoxicity [3]: strong toxicity, particularly cardiotoxicity

Cc1ccc2c(c1O)NC(O)C1CC(/C=C/C(N)=O)=CN1C2=O (single isomer, unassigned) [PBA, 5,10,11,11a-tetrahydro-9,11-dihydroxy-8-methyl-5-oxo-1H-pyrrolo[2,1-c][1,4]-benzodiazepin-2-acrylamide]
antitumor activity [1]: very strong antitumor activity
LD50 at 504 h [4]: 0.73 mg/kg
antibacterial activity [2]: antibacterial and antitumor activities are exhibited
toxicity, particularly cardiotoxicity [3]: strong toxicity, particularly cardiotoxicity

Cc1ccc2c(c1O)N=CC1CC(/C=C/C(N)=O)=CN1C2=O (stereo not shown) [P'B'A', 5,11,11a-trihydro-9-hydroxy-8-methyl-5-oxo-1H-pyrrolo-[2,1-c][1,4]benzodiazepin-2-acrylamide]
antitumor activity [1]: very strong antitumor activity
antibacterial activity [2]: antibacterial and antitumor activities are exhibited
toxicity, particularly cardiotoxicity [3]: strong toxicity, particularly cardiotoxicity

CC(=O)Oc1c(C)ccc2c1N(C(C)=O)C(S(=O)O)C1CC(/C=C/C(N)=O)=CN1C2=O (stereo not shown) [R1=COCH3, R2=COCH3, R3=SO2 H, 5,10,11,11a-tetrahydro-9-acetoxy-10-acetyl-8-methyl-5-oxo-11-sulfino-1H-pyrrolo-[2,1-c][1,4]benzodiazepin-2-acrylamide]
LD50 (dd-strain male mice): 2.62 mg/kg

CC(=O)Oc1c(C)ccc2c1N(C(C)=O)C(S(=O)O)C1CC(/C=C/C(N)=O)=CN1C2=O (stereo not shown) [R1=COCH3, R2=COCH3, R3=SO2 Na]
LD50 at 504 h [4]: 2.71 mg/kg

CC(=O)Oc1c(C)ccc2c1N(C(C)=O)C(S(=O)(=O)O)C1CC(/C=C/C(N)=O)=CN1C2=O (stereo not shown) [R1=COCH3, R2=COCH3, R3=SO3 H, 5,10,11,11a-Tetrahydro-9-acetoxy-10-acetyl-8-methyl-5-oxo-11-sulfo-1H-pyrrolo[2,1-c][1,4]benzodiazepin-2-acrylamide]
LD50 (dd-strain male mice): 2.81 mg/kg

CC(=O)Oc1c(C)ccc2c1N(C(C)=O)C(S(=O)(=O)O)C1CC(/C=C/C(N)=O)=CN1C2=O (stereo not shown) [R1=COCH3, R2=COCH3, R3=SO3 Na]
LD50 at 504 h [4]: 3.04 mg/kg

CC(=O)Oc1c(C)ccc2c1NC(S(=O)O)C1CC(/C=C/C(N)=O)=CN1C2=O (stereo not shown) [R1=COCH3, R2=H, R3=SO2 H, 5,10,11,11a-Tetrahydro-9-acetoxy-8-methyl-5-oxo-11-sulfino-1H-pyrrolo[2,1-c][1,4]benzodiazepin-2-acrylamide]
LD50 at 504 h [4]: 2.54 mg/kg

CC(=O)Oc1c(C)ccc2c1NC(S(=O)O)C1CC(/C=C/C(N)=O)=CN1C2=O (stereo not shown) [R1=COCH3, R2=H, R3=SO2 Na, 5,10,11,11a-tetrahydro-9-acetoxy-8-methyl-5-oxo-11-sulfino-1H-pyrrolo[2,1-c][1,4]benzodiazepin-2-acrylamide sodium salt]
LD50 (dd-strain male mice; sodium salt): 2.60 mg/kg

CC(=O)Oc1c(C)ccc2c1NC(S(=O)(=O)O)C1CC(/C=C/C(N)=O)=CN1C2=O (stereo not shown) [R1=COCH3, R2=H, R3=SO3 H, 5,10,11,11a-tetrahydro-9-acetoxy-8-methyl-5-oxo-11-sulfo-1H-pyrrolo[2,1-c][1,4]benzodiazepin-2-acrylamide]
LD50 at 504 h [4]: 2.68 mg/kg

CC(=O)N1c2c(ccc(C)c2OC(N)=O)C(=O)N2C=C(/C=C/C(N)=O)CC2C1S(=O)O (stereo not shown) [R1=CONH2, R2=COCH3, R3=SO2 H, 5,10,11,11a-tetrahydro-10-acetyl-9-carbamyloxy-8-methyl-5-oxo-11-sulfino-1H-pyrrolo[2,1-c][1,4]benzodiazepin-2-acrylamide]
LD50 at 504 h [4]: 2.84 mg/kg

CC(=O)N1c2c(ccc(C)c2OC(N)=O)C(=O)N2C=C(/C=C/C(N)=O)CC2C1S(=O)(=O)O (stereo not shown) [R1=CONH2, R2=COCH3, R3=SO3 H, 5,10,11,11a-Tetrahydro-10-acetyl-9-carbamyloxy-8-methyl-5-oxo-11-sulfo-1H-pyrrolo[2,1-c][1,4]benzodiazepin-2-acrylamide]
LD50 at 504 h [4]: 2.8 mg/kg

Cc1ccc2c(c1OC(N)=O)NC(S(=O)O)C1CC(/C=C/C(N)=O)=CN1C2=O (stereo not shown) [R1=CONH2, R2=H, R3=SO2 H, 5,10,11,11a-Tetrahydro-9-carbamyloxy-8-methyl-5-oxo-11-sulfino-1H-pyrrolo[2,1-c][1,4]benzodiazepin-2-acrylamide]
LD50 at 504 h [4]: 2.37 mg/kg

Cc1ccc2c(c1OC(N)=O)NC(S(=O)(=O)O)C1CC(/C=C/C(N)=O)=CN1C2=O (stereo not shown) [R1=CONH2, R2=H, R3=SO3 H, 5,10,11,11a-Tetrahydro-9-carbamyloxy-8-methyl-5-oxo-11-sulfo-1H-pyrrolo[2,1-c][1,4]benzodiazepin-2-acrylamide]
LD50 at 504 h [4]: 2.4 mg/kg

COC(=O)Oc1c(C)ccc2c1NC(S(=O)O)C1CC(/C=C/C(N)=O)=CN1C2=O (stereo not shown) [R1=COOCH3, R2=H, R3=SO2 H]
LD50 at 504 h [4]: 2.56 mg/kg

COC(=O)Oc1c(C)ccc2c1NC(S(=O)(=O)O)C1CC(/C=C/C(N)=O)=CN1C2=O (stereo not shown) [R1=COOCH3, R2=H, R3=SO3 H, 5,10,11,11a-tetrahydro-8-methyl-9-methoxycarbonyloxy-5-oxo-11-sulfo-1H-pyrrolo[2,1-c][1,4]-benzodiazepin-2-acrylamide]
LD50 at 504 h [4]: 2.55 mg/kg

CC(=O)N1c2c(ccc(C)c2O)C(=O)N2C=C(/C=C/C(N)=O)CC2C1S(=O)O (stereo not shown) [R1=H, R2=COCH3, R3=SO2 H, 5,10,11,11a-tetrahydro-10-acetyl-9-hydroxy-8-methyl-5-oxo-11-sulfino-1H-pyrrolo-[2,1-c][1,4]benzodiazepin-2-acrylamide]
LD50 at 504 h [4]: 2.5 mg/kg

CC(=O)N1c2c(ccc(C)c2O)C(=O)N2C=C(/C=C/C(N)=O)CC2C1S(=O)(=O)O (stereo not shown) [R1=H, R2=COCH3, R3=SO3 H, 5,10,11,11a-Tetrahydro-10-acetyl-9-hydroxy-8-methyl-5-oxo-11-sulfo-1H-pyrrolo[2,1-c][1,4]benzodiazepin-2-acrylamine]
LD50 (dd-strain male mice): 2.43 mg/kg

CC(=O)N1c2c(ccc(C)c2O)C(=O)N2C=C(/C=C/C(N)=O)CC2C1S(=O)(=O)O (stereo not shown) [R1=H, R2=COCH3, R3=SO3 Na, 5,10,11,11a-tetrahydro-10-acetyl-9-hydroxy-8-methyl-5-oxo-11-sulfo-1H-pyrrolo[2,1-c][1,4]benzodiazepin-2-acrylamide sodium salt]
LD50 at 504 h [4]: 2.51 mg/kg

Cc1ccc2c(c1O)NC(S(=O)O)C1CC(/C=C/C(N)=O)=CN1C2=O (stereo not shown) [R1=H, R2=H, R3=SO2 H, 5,10,11,11a-tetrahydro-9-hydroxy-8-methyl-5-oxo-11-sulfino-1H-pyrrolo[2,1-c][1,4]-benzodiazepin-2-acrylamide]
LD50 at 504 h [4]: 2.18 mg/kg

Cc1ccc2c(c1O)NC(S(=O)O)C1CC(/C=C/C(N)=O)=CN1C2=O (stereo not shown) [R1=H, R2=H, R3=SO2 K]
LD50 (dd-strain male mice): 2.31 mg/kg

Cc1ccc2c(c1O)NC(S(=O)O)C1CC(/C=C/C(N)=O)=CN1C2=O (stereo not shown) [R1=H, R2=H, R3=SO2 Na]
LD50 (dd-strain male mice): 2.28 mg/kg

Cc1ccc2c(c1O)NC(S(=O)(=O)O)C1CC(/C=C/C(N)=O)=CN1C2=O (stereo not shown) [R1=H, R2=H, R3=SO3 H, 5,10,11,11a-Tetrahydro-9-hydroxy-8-methyl-5-oxo-11-sulfo-1H-pyrrolo[2,1-c][1,4]benzodiazepin-2-acrylamide]
LD50 at 504 h [4]: 2.21 mg/kg

Cc1ccc2c(c1O)NC(S(=O)(=O)O)C1CC(/C=C/C(N)=O)=CN1C2=O (stereo not shown) [R1=H, R2=H, R3=SO3 Na]
LD50 (dd-strain male mice): 2.31 mg/kg
